Measured values reported in the NIST ThermoML archive (doi:10.1016/j.tca.2018.10.018).
± gives the expanded uncertainty stated by the source.

Assay: xn = mol fraction of the nth substance listed
Conditions: Liquid; for viscosity: Capillary tube (Ostwald / Ubbelohde) method; for mass density: Siemens Coriolis flowmeter

CCCCCCCCCC(=O)OC [methyl decanoate] + CCCCCCC
Conditions	mass density, 298.15 K [kg/m3]	mass density, 308.15 K [kg/m3]	mass density, 318.15 K [kg/m3]	viscosity, 298.15 K [mPa·s]	viscosity, 308.15 K [mPa·s]	viscosity, 318.15 K [mPa·s]
100 kPa, x1 = 0.101	706 ± 2	698 ± 2	689 ± 2	0.465 ± 0.015	0.394 ± 0.012	0.339 ± 0.011
100 kPa, x1 = 0.202	730 ± 2	722 ± 2	713 ± 2	0.549 ± 0.017	0.454 ± 0.014	0.375 ± 0.012
100 kPa, x1 = 0.299	753 ± 2	744 ± 2	736 ± 2	0.655 ± 0.02	0.52 ± 0.016	0.418 ± 0.013
100 kPa, x1 = 0.403	773 ± 2	765 ± 2	757 ± 2	0.779 ± 0.024	0.613 ± 0.019	0.486 ± 0.015
100 kPa, x1 = 0.501	792 ± 2	784 ± 2	776 ± 2	0.912 ± 0.028	0.716 ± 0.022	0.565 ± 0.018
100 kPa, x1 = 0.601	810 ± 2	801 ± 2	793 ± 2	1.071 ± 0.033	0.843 ± 0.026	0.669 ± 0.021
100 kPa, x1 = 0.698	826 ± 2	818 ± 2	809 ± 2	1.257 ± 0.039	0.999 ± 0.031	0.8 ± 0.025
100 kPa, x1 = 0.799	841 ± 2	833 ± 2	825 ± 2	1.461 ± 0.045	1.173 ± 0.036	0.951 ± 0.03
100 kPa, x1 = 0.902	855 ± 2	847 ± 2	839 ± 2	1.67 ± 0.052	1.351 ± 0.042	1.104 ± 0.034
100 kPa, x1 = 1	868 ± 2	860 ± 2	853 ± 2	1.934 ± 0.06	1.628 ± 0.05	1.38 ± 0.043
3000 kPa, x1 = 0.101	709 ± 2	700 ± 2	692 ± 2	0.483 ± 0.015	0.411 ± 0.013	0.355 ± 0.011
3000 kPa, x1 = 0.202	734 ± 2	724 ± 2	717 ± 2	0.575 ± 0.018	0.475 ± 0.015	0.394 ± 0.012
3000 kPa, x1 = 0.299	756 ± 2	747 ± 2	739 ± 2	0.686 ± 0.021	0.547 ± 0.017	0.441 ± 0.014
3000 kPa, x1 = 0.403	776 ± 2	767 ± 2	760 ± 2	0.815 ± 0.025	0.644 ± 0.02	0.514 ± 0.016
3000 kPa, x1 = 0.501	795 ± 2	786 ± 2	778 ± 2	0.955 ± 0.03	0.752 ± 0.023	0.597 ± 0.019
3000 kPa, x1 = 0.601	812 ± 2	804 ± 2	796 ± 2	1.119 ± 0.035	0.885 ± 0.028	0.704 ± 0.022
3000 kPa, x1 = 0.698	828 ± 2	820 ± 2	812 ± 2	1.31 ± 0.041	1.045 ± 0.033	0.84 ± 0.026
3000 kPa, x1 = 0.799	843 ± 2	835 ± 2	827 ± 2	1.52 ± 0.047	1.224 ± 0.038	0.995 ± 0.031
3000 kPa, x1 = 0.902	857 ± 2	849 ± 2	841 ± 2	1.735 ± 0.054	1.407 ± 0.044	1.152 ± 0.036
3000 kPa, x1 = 1	870 ± 2	–	854 ± 2	1.992 ± 0.061	–	1.417 ± 0.044
3010 kPa, x1 = 1	–	862 ± 2	–	–	1.675 ± 0.052	–
6000 kPa, x1 = 0.101	712 ± 2	703 ± 2	696 ± 2	0.502 ± 0.016	0.428 ± 0.013	0.371 ± 0.012
6000 kPa, x1 = 0.202	736 ± 2	727 ± 2	720 ± 2	0.599 ± 0.019	0.496 ± 0.015	0.414 ± 0.013
6000 kPa, x1 = 0.299	758 ± 2	750 ± 2	742 ± 2	0.717 ± 0.022	0.574 ± 0.018	0.465 ± 0.015
6000 kPa, x1 = 0.403	779 ± 2	770 ± 2	763 ± 2	0.851 ± 0.026	0.676 ± 0.021	0.541 ± 0.017
6000 kPa, x1 = 0.501	798 ± 2	789 ± 2	781 ± 2	0.996 ± 0.031	0.789 ± 0.025	0.629 ± 0.02
6000 kPa, x1 = 0.601	815 ± 2	806 ± 2	799 ± 2	1.166 ± 0.036	0.926 ± 0.029	0.74 ± 0.023
6000 kPa, x1 = 0.698	831 ± 2	822 ± 2	815 ± 2	1.364 ± 0.042	1.091 ± 0.034	0.88 ± 0.027
6000 kPa, x1 = 0.799	846 ± 2	837 ± 2	830 ± 2	1.58 ± 0.049	1.276 ± 0.04	1.039 ± 0.032
6000 kPa, x1 = 0.902	859 ± 2	851 ± 2	843 ± 2	1.8 ± 0.056	1.463 ± 0.045	1.199 ± 0.037
6000 kPa, x1 = 1	872 ± 2	864 ± 2	856 ± 2	2.058 ± 0.064	1.727 ± 0.053	1.462 ± 0.045
9000 kPa, x1 = 0.101	715 ± 2	706 ± 2	699 ± 2	0.519 ± 0.016	0.446 ± 0.014	0.386 ± 0.012
9000 kPa, x1 = 0.202	739 ± 2	730 ± 2	723 ± 2	0.623 ± 0.019	0.518 ± 0.016	0.433 ± 0.014
9000 kPa, x1 = 0.299	761 ± 2	752 ± 2	745 ± 2	0.746 ± 0.023	0.6 ± 0.019	0.489 ± 0.015
9000 kPa, x1 = 0.403	781 ± 2	773 ± 2	765 ± 2	0.886 ± 0.028	0.707 ± 0.022	0.569 ± 0.018
9000 kPa, x1 = 0.501	800 ± 2	792 ± 2	784 ± 2	1.038 ± 0.032	0.825 ± 0.026	0.661 ± 0.021
9000 kPa, x1 = 0.601	817 ± 2	809 ± 2	801 ± 2	1.214 ± 0.038	0.967 ± 0.03	0.776 ± 0.024
9000 kPa, x1 = 0.698	833 ± 2	825 ± 2	817 ± 2	1.417 ± 0.044	1.138 ± 0.035	0.919 ± 0.029
9000 kPa, x1 = 0.799	848 ± 2	840 ± 2	832 ± 2	1.639 ± 0.051	1.327 ± 0.041	1.083 ± 0.034
9000 kPa, x1 = 0.902	861 ± 2	853 ± 2	846 ± 2	1.865 ± 0.058	1.519 ± 0.047	1.247 ± 0.039
9000 kPa, x1 = 1	874 ± 2	866 ± 2	859 ± 2	2.123 ± 0.066	1.779 ± 0.055	1.491 ± 0.046
12000 kPa, x1 = 0.101	718 ± 2	709 ± 2	702 ± 2	0.537 ± 0.017	0.463 ± 0.014	0.402 ± 0.013
12000 kPa, x1 = 0.202	742 ± 2	733 ± 2	726 ± 2	0.647 ± 0.02	0.539 ± 0.017	0.452 ± 0.014
12000 kPa, x1 = 0.299	764 ± 2	755 ± 2	748 ± 2	0.776 ± 0.024	0.626 ± 0.02	0.512 ± 0.016
12000 kPa, x1 = 0.403	784 ± 2	775 ± 2	768 ± 2	0.922 ± 0.029	0.739 ± 0.023	0.596 ± 0.019
12000 kPa, x1 = 0.501	802 ± 2	794 ± 2	787 ± 2	1.079 ± 0.034	0.862 ± 0.027	0.692 ± 0.022
12000 kPa, x1 = 0.601	819 ± 2	811 ± 2	804 ± 2	1.261 ± 0.039	1.009 ± 0.031	0.812 ± 0.025
12000 kPa, x1 = 0.698	835 ± 2	827 ± 2	820 ± 2	1.471 ± 0.046	1.184 ± 0.037	0.959 ± 0.03
12000 kPa, x1 = 0.799	850 ± 2	842 ± 2	834 ± 2	1.698 ± 0.053	1.378 ± 0.043	1.126 ± 0.035
12000 kPa, x1 = 0.902	863 ± 2	856 ± 2	848 ± 2	1.93 ± 0.06	1.575 ± 0.049	1.295 ± 0.04
12000 kPa, x1 = 1	877 ± 2	869 ± 2	861 ± 2	2.209 ± 0.068	1.835 ± 0.057	1.534 ± 0.047
15000 kPa, x1 = 0.101	720 ± 2	712 ± 2	705 ± 2	0.555 ± 0.017	0.48 ± 0.015	0.418 ± 0.013
15000 kPa, x1 = 0.202	744 ± 2	736 ± 2	729 ± 2	0.671 ± 0.021	0.561 ± 0.018	0.472 ± 0.015
15000 kPa, x1 = 0.299	766 ± 2	758 ± 2	751 ± 2	0.806 ± 0.025	0.653 ± 0.02	0.536 ± 0.017
15000 kPa, x1 = 0.403	786 ± 2	778 ± 2	771 ± 2	0.958 ± 0.03	0.771 ± 0.024	0.624 ± 0.019
15000 kPa, x1 = 0.501	805 ± 2	797 ± 2	789 ± 2	1.121 ± 0.035	0.898 ± 0.028	0.724 ± 0.023
15000 kPa, x1 = 0.601	822 ± 2	814 ± 2	806 ± 2	1.308 ± 0.041	1.051 ± 0.033	0.847 ± 0.026
15000 kPa, x1 = 0.698	837 ± 2	829 ± 2	822 ± 2	1.524 ± 0.047	1.23 ± 0.038	0.998 ± 0.031
15000 kPa, x1 = 0.799	852 ± 2	844 ± 2	837 ± 2	1.757 ± 0.054	1.429 ± 0.044	1.17 ± 0.036
15000 kPa, x1 = 0.902	865 ± 2	858 ± 2	850 ± 2	1.995 ± 0.062	1.631 ± 0.051	1.343 ± 0.042
15000 kPa, x1 = 1	878 ± 2	871 ± 2	863 ± 2	2.272 ± 0.07	1.888 ± 0.058	1.578 ± 0.049
